From patent publication US6713057B1, “Compositions and methods for modulating serum cholesterol” (The Johns Hopkins University, priority 1999, dated 2004)

Assays:
SREBP-1 [1] = test: SREBP-1 proteolysis (maturation) assay, Western immunoblot of nuclear fractions, HH-25 hepatocytes; type: cell-based, human; conditions: for induction of SREBP-1 maturation (increase in mature SREBP-1), in words: HH-25 hepatocytes, sterol independent
Experimental: FIGS. 2A-2C illustrate effects of TNF-α sphingomyelinase and C2-ceramide on the kinetics of SREBP-1 maturation—FIGS. 2A-2C is explained in more detail as follows: Cells were maintained in media supplemented with 1 μg/ml 25-hydroxy cholesterol and 15 μg/ml cholesterol for 24 hours before the experiment. The cells were treated for the indicated time as described in materials and methods. The cells were then harvested in PBS, pelleted and frozen. Lysis and nuclear fractionation were performed as described. Nuclear fractions (50 μg of protein) were electrophoresed on a 7.5% polyacrylamide gel and transferred to a PVDF membrane. Western blotting was performed as described. Band intensity was quantified via densitometry. Error bars represent ±one standard deviation from the mean. 2A) The kinetics of SREBP maturation as measured by the increase in mature SREBP-1 are plotted. Fold increase was calculated by comparing each time point to the corresponding control value (TNF-α is represented by stippled bars, bacterial sphingomyelinase is represented by light gray bars and C2-ceramide by the dark bars.) 2B) Cells were treated with TNF-α (10 ng/ml) and prepared as described above. The bands corresponding to the precursor and mature forms of SREBP-1 were quantified and their ratio plotted. 2C) Representative Western blots from which numerical data was derived. Incubation time is indicated above and applies to all conditions. The membranes were exposed to film for 15 seconds. P and M denote the precursor and mature forms of SREBP-1 respectively.
FIGS. 3A-3C show effects of TNF-α, sphingomyelinase and C2-ceramide concentration on SREBP-1 maturation—The FIGS. 3A-3C are explained in more detail as follows. […] Nuclear pellets were prepared and electrophoresed (50 μg of protein). The bands corresponding to the precursor and mature forms of SREBP-1 were quantified. The precursor to mature ratios were normalized to a single control to facilitate comparison. The control ratio was arbitrarily assigned a value of 1. A Unit of sphingomyelinase activity hydrolyzes 1.0 μmol of sphingomyelin per minute at 37° C. FIG. 3A (ng/ml TNF-α); FIG. 3B (mUnits of sphingomyelinase); FIG. 3C (micromolar C2-ceramide).
HH-25 cells were grown in alpha-minimal essential media supplemented with 100 units/ml penicillin, 100 µg/ml streptomycin, […], 0.1 μM selenium, 5.5 μg/ml transferrin, 0.5 μg/ml linoleic acid and 10% fetal bovine serum (media A). The cells were incubated in serum free F10 media for 30 to 60 minutes prior to initiating treatment with TNF-α, C2-ceramide or sphingomyelinase.
Following treatment, the cells were washed with 5 ml of PBS and pelleted at 1500×g for 10 minutes at 4° C. The pellet was stored at −70° C. and lysed in 0.5 ml buffer A (10 mM HEPES pH 7.4, 5 mM EDTA, 0.25 mM EGTA, 50 mM NaF, 7 mM β-mercaptoethanol, 0.35M sucrose, 0.1% NP-40 and protease inhibitors 1 mM PMSF, 2 μg/ml aprotinin, 10 μg/ml leupeptin and 5 μg/ml pepstatin). The lysate was centrifuged at 12,000×g for 15 minutes at 4° C. to prepare a nuclear fraction. The protein concentration of these samples was determined by the method of Lowry et al. al. (19).
50 μg of nuclear protein was separated by gel electrophoresis on a 7.5% polyacrylamide gel. Gels were calibrated by high range molecular weight markers (Bio-Rad product #161-0303, New York, N.Y.) which were transferred to a polyvinyl difluoride (PVDF) membrane and visualized with coomassie staining. Rabbit polyclonal antibodies against SREBP-1 were used at 0.5 μg/ml according to the instructions of the manufacturer. The antibody was visualized with horseradish peroxidase conjugated anti-rabbit IgG made in donkey (Amersham) using the Enhanced Chemiluminescence (ECL) Western Blotting Detection System Kit (Amersham). PVDF membranes were exposed to Hyperfilm ECL (Amersham) for the indicated time. Immunoblots were quantified via densitometry performed on a PDI densitometer scanner (model 20J7) coupled to a SPARC IRC workstation.

SREBP-1 [2] = test: Indirect immunofluorescence of SREBP-1 subcellular localization; type: cell-based, human; conditions: 30 minutes after initiating treatment; TNF-α 10 ng/ml, sphingomyelinase 100 mUnits, C2-ceramide 10 μM
Experimental: FIGS. 5A-5D show indirect immunofluorescence of SREBP-1. FIGS. 5A-5D are discussed in more detail as follows. SREBP-1 was visualized with rabbit polyclonal antibodies directed towards the N-terminal DNA binding domain which is common to both the precursor and mature forms. Cells were maintained in media supplemented with 1 μg/ml 25-hydroxycholesterol and 15 μg/ml cholesterol for 24 hours before the experiment. Immunofluorescence was performed as described. All magnifications are 40× and all photographs were taken of samples that were fixed 30 minutes after initiating treatment. FIG. 5A) Control cells, FIG. 5B) Cells treated with TNF-α (10 ng/ml), FIG. 5C) Cells treated with sphingomyelinase (100 mUnits), FIG. 5D) Cells treated with C2-ceramide (10 μM).
Cultured HH-25 cells were grown on coverslips and treated as described. After treatment, the cells were washed 3×5 minutes with PBS containing 1 mM MgCl2 and 0.1 mM CaCl2 (solution A). The cells were fixed with 3% paraformaldehyde in solution A for 10 minutes and permeabilized with 0.5% Triton X-100 in solution A for 6 minutes at room temperature. The coverslips were then washed 3×5 minutes with solution A.
Primary antibody (anti-SREBP1) was used at a dilution of […] in PBS and applied for 1 hour with gentle shaking. The cells were washed as above and a FITC conjugated anti-rabbit IgG secondary antibody, was applied for ½ hour according to the instructions of the manufacturer. The coverslips were washed, mounted on microscope slides and were viewed and photographed at the indicated magnification on a Zeiss Axiovert 25 fluorescence microscope.

SREBP-1 [3] = test: Electrophoretic mobility shift assay, SREBP-1 binding to SRE probe; type: cell-based, human; conditions: TNF-α 10 ng/ml, sphingomyelinase 100 mUnits, C2-ceramide 10 μM
Experimental: FIGS. 6A-6D show electrophoretic mobility shift assays. FIGS. 6A-D are explained in more detail as follows. Cells were maintained in sterol supplemented media. Nuclear pellets were prepared and assayed as described in materials and methods. Probe that has been bound by mature SREBP-1 is indicated as “Bound”. Unbound probe is indicated as “Free”. The kinetics (in minutes) of SREBP-1 binding to the probe in response to treatment with (FIG. 6A). TNF-α (10 ng/ml), (FIG. 6B) sphingomyelinase (100 mUnits) and (FIG. 6C) C2-ceramide ([…]). (FIG. 6D). The cells were treated with either TNF-α (10 ng/ml), sphingomyelinase (100 mUnits) or C2-ceramide (10 μM) for 15 minutes. Supershift assays were then performed with antibodies raised against the DNA binding domain of SREBP-1. The presence or absence of antibody is indicated by (+) and (−) respectively. Pre-immune IgG was used as a control.
Gel mobility shift assays were performed as follows. Each 20 μl reaction mixture contained 8-10 μg of nuclear protein plus a α-[^32P]-labeled 25-base pair oligonucleotide probe containing the SREBP-binding site (14) in binding buffer (10 mM Hepes, pH 7.5, 0.5 mM spermidine, 0.15 mM EDTA, 10 mM dithiothreitol, 0.35 mM sucrose). The reaction mixture was incubated at room temperature for 15 min and loaded directly onto a 6.5% polyacrylamide (49:0.6 acrylamide/bisacrylamide) gel in a buffer of 25 mM Tris borate (pH 8.0), 0.25 mM EDTA. In some experiments, antisera specific for SREBP or preimmune sera were added to reaction mixtures to determine the composition of protein-probe complexes. For these “supershift” assays, extracts were incubated with 1 μl of preimmune sera or an equal volume of anti-SREBP antisera at 4° C. for 30 min prior to addition of α-[^32P]-labeled probe. In all experiments, proteins were separated by electrophoresis at 200 V for 2 h at room temperature. Gels were dried and exposed to Kodak XAR film with intensifying screens. Assays were repeated with nuclear extracts obtained from three unique experiments and evaluated by phosphoimage analysis to ensure reproducibility of results.

Experimental for HH-25 cells: Cells were treated with either TNF-α, sphingomyelinase or C2-ceramide for 1 hour at concentrations identical to those used in the SREBP-1 maturation studies. The cells were then washed twice with minimal essential medium and refed with media A for 6 hours. […] Genomic DNA was electrophoresed and stained with ethidium bromide.

Compound | induction of SREBP-1 maturation (increase in mature SREBP-1), in words (SREBP-1 [1]) | decrease in the precursor to mature ratio (SREBP-1 [1]; 250 milliunits of sphingomyelinase activity) | increase in mass of the mature form of SREBP-1 (SREBP-1 [1]; after 15 minutes of treatment, sterol supplemented media) | persistence of the increase in mature SREBP-1 (SREBP-1 [1]; after 60 minutes) | subcellular localization of SREBP-1 (staining pattern) (SREBP-1 [2]) | amount of probe bound (electrophoretically retarded) by mature SREBP-1 (SREBP-1 [3]) | induction of apoptosis (160 bp DNA ladder) (HH-25 cells)
CCCCCCCCCCCCCCC[C@@H](O)[C@H](CO)NC(C)=O [C2-dihydroceramide, reference compound] | could not be induced | – | – | – | – | – | –
PDGF | could not be recapitulated | – | – | – | – | – | –
Sphingomyelinase | – | 80% | 2.5 fold | persisted after 60 minutes | intense nuclear staining and little extra-nuclear staining | increases | did not induce apoptosis
